Data set [1] is described as follows: In vitro S9 stability assay (LC-MS/MS). It counts as in vitro ADME, human. The note with it: for change of concentration in heat-denatured S9 fraction: heat-denatured (deactivated) S9 fraction; for change of concentration in heat-denatured S9 fraction / change of concentration in active S9 fraction: up to 60 min. As for the experimental part: Human S9 liver fraction (catalogue no. HMS9PL, lot no. PL045-A) (protein content 20 mg mL^−1), containing a mixture of microsomal and cytosol enzymes, was used (Thermo Fisher Scientific, Waltham, MA USA) together with the following activating cofactors: NADPH (Alfa Aesar, Wart Hill, MA, USA), UDPGA (Merck KGaA; Darmstadt, Germany) and GSH (Merck, Darmstadt Germany). All cofactors (20 mM) and the analysed AEGs (3 µM) were prepared in 1% DMSO, the reaction was performed in a buffer (200 mM Tris (Merck KGaA, Darmstadt, Germany), 2 mM MgCl2 and 1M NaOH (Avantor Performance Materials Poland S.A., Gliwice, Poland); pH 7.4) 7-etoxycoumarine (7-EC; 3 µM in 20% DMSO) (Merck KGaA, Darmstadt, Germany) was used as a positive control. Tubes with 236 µL of buffer and 24 µL of S9 fraction were prepared in duplicates. Half of the samples was kept on ice, while the other half was deactivated by heating at 80 °C for 10 min and then cooled to room temperature. Cofactors were mixed (1:1:1) and 120 µL of the mixture, together with 20 µL of 7-EC were added to all samples. The aliquots (25 µL) of the samples were withdrawn at 0, 15, 30, 45, and 60 min, and 50 µL of an ice-cold ACN:MeOH (50:50) was added to stop the reaction. The samples were centrifuged (10,000× g, 4 °C, 10 min) and the supernatants were analysed by LC-MS/MS. The test was repeated twice. The elimination half-life was calculated as in Wen and Walle.
LC-MS/MS analyses were performed using an Agilent 1200 (Agilent Technologies, Waldboronn, Germany) chromatographic system coupled with a hybrid triple quadrupole/linear ion trap mass spectrometer (QTRAP5500, Applied Biosystems, Sciex, Concorde, ON, Canada) as a detector. AEGs were separated in a Zorbax Eclipse XDB-C18 column (4.61 mm × 150 mm; 5 µm) (Agilent Technologies, Santa Clara, CA, USA). The composition of the mobile phase was the same as in preparative chromatography. For analysis of the collected chromatographic fractions, the gradient changed from 15% B to 99% B over 20 min (flow rate 0.6 mL min^−1). The Turbo IonSource operated in positive ionisation mode at capillary voltage of 5.5 kV and source temperature of 550 °C. Cone gas pressure and desolvation gas pressure were 60 psi, declustering potential was 80 V, and collision energy was 60 ± 20 eV. Q3-information-dependent analysis (IDA) and enhanced product ion (EPI) modes were used. The IDA threshold was set at 500,000 cps, and the m/z range was 400–1000. The scan rate was 2000 amu s^−1, and the linear ion trap fill time 50 ms. For analysis of AEGs and 7-EC, the chromatographic gradient changed from 15% B to 25% B in 5 min, then to 99% B in the next 5 min (0.6 mL min^−1). MS operated in multiple reaction monitoring mode at collision energy CE 50 V and with the following transitions: 191 → 163, 119, 107 (q), 91 (for 7-EC); 561 → 222, 186, 86 (q) (for AEG A); 626 → 296, 136 (q), 70 (for AEG 625) and 658 → 296, 199 (q), 120 (for AEG 657). To determine the changes in AEGs concentrations, the peak areas of the most intensive ions (q) were measured.

Data set [2] deals with human breast adenocarcinoma cell line T47D. Nature of the data set: MTT cytotoxicity assay. In kind it is cell-based. Conditions: 40 µM, 24 h. The procedure:
MTT (3-(4,5-dimethylthiazol-2-yl)-2,5-diphenyltetrazolium-bromide) assay was performed according to Felczykowska et al.. Briefly, cytotoxicity assessment was conducted against human breast adenocarcinoma cell line T47D obtained from the European Collection of Authenticated Cell Cultures (ECACC) through Merck KGaA (Darmstadt, Germany). Cells were cultured in 96-well plates using RPMI1640 medium (Carl Roth GmbH, Karlsruhe, Germany) supplemented with a fetal bovine serum (10% v/v; Sigma-Aldrich by Merck KGaA, Darmstadt, Germany) and penicillin-streptomycin solution (1% v/v, stock solution 50 u and 0.05 mg mL^−1, respectively; Merck KGaA, Darmstadt, Germany) at 1 × 10^4 cells per well and incubated for 24 h. After the addition of the tested compounds (40, 80, 160 and 320 µM) dissolved in 1% DMSO, samples were incubated for another 24 h. Then, MTT reagent was added (25 µL at 4 mg mL^−1 in PBS; Merck KGaA; Darmstadt, Germany) and the samples were incubated for 4 h. Lastly, formazan crystals were dissolved in 100% DMSO and absorbance was measured using a microplate reader (Spectramax i3, Molecular Devices, LLC San Jose, CA, USA). Cell viability was calculated as the ratio of the mean absorbance value measured in two independent assays, for the three replicates containing the samples, to the mean absorbance of the three replicates of the corresponding solvent control and expressed as a percentage.
(In general: Formazan colour is commonly taken as a measure of viable cells.)

Another data set has as its system Huh7 cells. Nature of the data set: CellTiter-Glo cell viability assay. In kind it is cell-based, human. Conditions: 24 h; for effect on Huh7 cell viability: 10 nM to 100 µM; for mean luciferase expression (relative luminescence), cell viability: normalized to untreated cells. As for the experimental part:
(§1) To determine cell viability and ROS level, Huh7 cells were seeded at 10,000 cells per well in white 96-well plates. After overnight incubation, the medium was removed and replaced with 100 μL of RPMI1640 supplemented with increasing concentrations of AEGs ranging from 10 nM to 100 μM (cell viability) or ranging from 1 µM to 100 μM (ROS), with three replicates at each concentration. After incubation for 24 h, cells viability was examined using a Cell Titer-Glo Luminescent Cell Viability Assay (Promega, Madison, WI, USA) and ROS was measured using a ROS-Glo H2O2 Assay (Promega, Madison, WI, USA).
A general note: In ATP-based viability assays light output follows the ATP content of the culture.

Data set [3] has as its system ROS (reactive oxygen species) levels in Huh7 cells. Nature of the data set: ROS-Glo H2O2 assay. The note with it: 1 µM to 100 µM, 24 h, concentration-dependent. It counts as cell-based, human. The procedure: as §1
The subject of data set [4] is MIR92b-3p in Huh7-pmirGLO-92b cells. Description: Dual-luciferase reporter assay for inhibitors of MIR92b-3p function. It counts as cell-based, human. The note with it: 100 µM, 24 h. As for the experimental part:
In this study, the reporter assays for small-molecule inhibitors of the MIR92b-3p function, previously designed to screen Nostoc peptides, were used. The screen employs a Huh7 human hepatoma cell line (Cell Lines Service GmbH, CLS; Eppelheim, Germany) stably transfected with a pmirGLO vector containing dual-luciferase reporters. Briefly, for the chemical screening of AEGs, Huh7-pmirGLO-MIR92b-3p cells were seeded at 10,000 cells per well in white, 96-well plates (Thermo Fisher Scientific, Waltham, MA, USA). After overnight incubation, the medium was removed and replaced with 100 μL of RPMI1640 (Merck, KGaA, Darmstadt, Germany), supplemented with increasing concentrations of AEGs, ranging from 10 nM to 100 μM, with three replicates at each concentration. Cells were incubated for 24 h and then analysed with a dual-luciferase Reporter Assay Kit (Promega, Madison, WI, USA). Relative luciferase activity was calculated using the ratio of firefly (F) and Renilla (R) luciferase activity (F/R).
A general note: A reporter such as luciferase makes a cellular process visible.

Another data set has as its target CYP2D6 (Homo sapiens, UniProt P10635). Description: Vivid CYP450 screening kit, CYP2D6 Blue.
For the next data set, the target named is CYP2C9 (Homo sapiens, UniProt P11712). Description: Vivid CYP450 screening kit, CYP2C9 Blue. Conditions: for reduction of CYP2C9 activity: 60 µM, 60 min incubation.
Chain of CYP2C9 (P11712 whole entry): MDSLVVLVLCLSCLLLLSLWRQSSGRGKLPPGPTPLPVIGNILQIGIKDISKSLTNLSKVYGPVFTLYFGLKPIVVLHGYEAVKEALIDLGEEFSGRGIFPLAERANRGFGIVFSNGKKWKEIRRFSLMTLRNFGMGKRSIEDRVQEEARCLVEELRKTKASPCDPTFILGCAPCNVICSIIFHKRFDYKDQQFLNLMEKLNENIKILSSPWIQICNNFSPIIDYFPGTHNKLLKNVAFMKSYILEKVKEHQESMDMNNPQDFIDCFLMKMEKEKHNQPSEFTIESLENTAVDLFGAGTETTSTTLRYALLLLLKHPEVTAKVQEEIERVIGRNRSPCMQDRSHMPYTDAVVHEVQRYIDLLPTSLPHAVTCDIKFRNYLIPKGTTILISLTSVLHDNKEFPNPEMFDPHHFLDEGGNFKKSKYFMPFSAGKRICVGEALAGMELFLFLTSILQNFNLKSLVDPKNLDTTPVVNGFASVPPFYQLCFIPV
In a further data set the target is T1, CYP3A4 (Homo sapiens, UniProt P08684).
T1 construct: purchased Thermo Fisher Scientific P2857; host or cells: baculovirus expression system (insect cell microsomes)
T1 sequence (P08684 2-503 limits assumed): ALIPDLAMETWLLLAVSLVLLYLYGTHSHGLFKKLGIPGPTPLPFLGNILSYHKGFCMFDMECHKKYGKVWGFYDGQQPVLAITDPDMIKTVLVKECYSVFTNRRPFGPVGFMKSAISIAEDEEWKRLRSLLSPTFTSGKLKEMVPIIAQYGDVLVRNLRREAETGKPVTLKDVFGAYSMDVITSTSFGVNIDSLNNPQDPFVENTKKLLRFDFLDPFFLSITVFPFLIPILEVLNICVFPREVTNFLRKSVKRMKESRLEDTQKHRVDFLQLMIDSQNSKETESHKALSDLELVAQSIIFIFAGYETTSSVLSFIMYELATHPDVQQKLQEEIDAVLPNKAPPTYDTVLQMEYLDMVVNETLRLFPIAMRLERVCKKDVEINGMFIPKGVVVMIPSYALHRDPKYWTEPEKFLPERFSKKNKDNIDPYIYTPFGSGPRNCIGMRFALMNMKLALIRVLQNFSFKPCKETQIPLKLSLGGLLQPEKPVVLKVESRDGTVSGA
Nature of the data set: Vivid CYP450 screening kit, CYP3A4 Blue. It counts as biochemical. Conditions: for effect on CYP3A4 activity: up to 60 µM.

Data set [5] concerns A2780 human ovarian tumour cells. Also on record: method as in PMID 34237867. The note with it: previous study; read-out: IC50 cytotoxic activity, A2780; cited from earlier work.
Data set [6] deals with K562 human leukaemia cells. The arrangement: method as in PMID 34237867. The note with it: previous study; read-out: IC50 cytotoxic activity, K562; cited from earlier work.
The mark [7] stands for this setting: active S9 fraction, 60 min, 3 µM.
[8] abbreviates: human, recombinant CYP2D6 (CYP450 BACULOSOMES Plus Reagent), probe Vivid CYP2D6 Blue substrate.

Usually inhibition stands for the drop in the measured response relative to a control, in per cent. What is called pIC50 is the IC50 on a negative log10 scale, so that one unit is a factor of ten. As a reminder, the IC50 is the point on the concentration scale where inhibition reaches its midpoint.

pIC50: −log10 of the molar value.

Chain of CYP2D6 (P10635 whole entry): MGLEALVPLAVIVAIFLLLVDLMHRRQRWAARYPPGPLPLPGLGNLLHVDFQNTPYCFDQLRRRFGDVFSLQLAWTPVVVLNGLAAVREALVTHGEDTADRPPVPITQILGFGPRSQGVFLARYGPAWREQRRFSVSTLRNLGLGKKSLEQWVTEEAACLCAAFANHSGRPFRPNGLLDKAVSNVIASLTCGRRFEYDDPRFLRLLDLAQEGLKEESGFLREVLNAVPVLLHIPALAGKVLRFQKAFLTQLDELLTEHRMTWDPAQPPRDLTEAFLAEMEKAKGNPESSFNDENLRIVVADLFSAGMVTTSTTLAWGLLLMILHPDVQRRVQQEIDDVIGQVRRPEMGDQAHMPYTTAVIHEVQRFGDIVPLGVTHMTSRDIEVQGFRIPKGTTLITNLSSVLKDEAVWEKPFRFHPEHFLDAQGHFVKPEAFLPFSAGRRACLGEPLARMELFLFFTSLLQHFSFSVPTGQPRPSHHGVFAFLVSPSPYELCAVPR
Method for CYP2C9: (§2) The following commercially available Vivid® CYP450 Screening Kits were performed according to the instruction supplied by the manufacturer (Thermo Fisher Scientific, Waltham, MA, USA): Vivid® CYP2C9 Blue (cat. no. P2861), Vivid® CYP2D6 Blue (cat. no. P2972) and Vivid® CYP3A4 Blue (cat. no. P2857). […] After adjustment to room temperature, the Vivid substrate was dissolved in anhydrous acetonitrile (10 µM), and the fluorescence standard was dissolved in DMSO (100 µM). The test compounds and inhibitors were diluted with the Vivid® CYP450 reaction buffer. […] In the subsequent steps, 5 µL solutions of test compounds, inhibitors and solvent were added to the wells. Then, 5 µL of Master Pre-Mix (mixture of Reagent, Regeneration System and the Reaction Buffer) was dispensed to each well. After 10 min incubation at room temperature, the reaction was started by the addition of 5 µL of a mixture composed of Vivid® Substrate and NADP^+. Tests were performed in endpoint mode using 384-well plates. […] The test was performed with three replicates at each concentration.
Method for CYP2D6: as §2
Method for CYP3A4: The following commercially available Vivid® CYP450 Screening Kits were performed according to the instruction supplied by the manufacturer (Thermo Fisher Scientific, Waltham, MA, USA): Vivid® CYP2C9 Blue (cat. no. P2861), Vivid® CYP2D6 Blue (cat. no. P2972) and Vivid® CYP3A4 Blue (cat. no. P2857). The CYP450 BACULOSOMES Plus Reagent (with the recombinant human cytochrome P450 and human cytochrome 450 reductases), Vivid Regeneration System (333 mM glucose-6-phosphate and 30 U mL^−1 glucose-6-phosphate dehydrogenase in 100 mM K3PO4, pH 8.0), and Vivid NADP^+ (10 mM NADP^+ in 100 mM K3PO4, pH 8.0) were thawed at room temperature and kept on ice until use. After adjustment to room temperature, the Vivid substrate was dissolved in anhydrous acetonitrile (10 µM), and the fluorescence standard was dissolved in DMSO (100 µM). The test compounds and inhibitors were diluted with the Vivid® CYP450 reaction buffer. […] In the subsequent steps, 5 µL solutions of test compounds, inhibitors and solvent were added to the wells. Then, 5 µL of Master Pre-Mix (mixture of Reagent, Regeneration System and the Reaction Buffer) was dispensed to each well. After 10 min incubation at room temperature, the reaction was started by the addition of 5 µL of a mixture composed of Vivid® Substrate and NADP^+. Tests were performed in endpoint mode using 384-well plates. Excitation wavelength was 415 nm and emission was measured at 460 nm, at the start of the test and after 60 min. The test was performed with three replicates at each concentration.

On to `CCOc1ccc2ccc(=O)oc2c1` [7-EC, 7-etoxycoumarin, reference compound], for which, in [1] (active S9 fraction with NADPH, UDPGA, GSH), the “elimination half-life t1/2” value is 38.7 min. Moreover, in [1] (setting [7]), the “concentration remaining, % of initial value” was found to be 28.6%. Moreover, the “change of concentration in heat-denatured S9 fraction” value in data set [1] was “no changes were observed”.
Consider `C=CC(C)(C)NC(Cc1ccc(O)cc1)C(=O)NC(C(=O)N1CCCC1C(=O)N1CCCC1c1nc(C(=O)O)cs1)C(C)C` (stereo not drawn) [AEG625], for which the “inhibition of T47D viability” value in data set [2] is on record as 48%. In addition, the “effect on Huh7 cell viability” value in the data set with Huh7 cells is given as “no apparent effect”. In addition, the “mean luciferase expression (relative luminescence), cell viability” value in the data set on Huh7 cells (50 µM) is 0.73 (SD = 0.47); in the data set on Huh7 cells (100 µM) it was 0.70 (SD = 0.27). The “change of ROS levels in Huh7 cells” value in [3] was “twofold”. For the same compound, the “luciferase signal intensity (MIR92b-3p reporter)” value in [4] is recorded as “slight increase in signal intensity”. In addition, at CYP2D6 (up to 60 µM), the “effect on CYP2D6 activity” value was “did not induce any effects”. Also, the “reduction of CYP2C9 activity” value at CYP2C9 was 43.9%. Besides, at CYP3A4, the “effect on CYP3A4 activity” value is reported as “No significant loss of CYP3A4 activity”. In addition, in data set [1] (active S9 fraction), the “change of concentration in active S9 fraction” value was “neither changes in the active nor in the deactivated fraction were detected”. Also, the “change of concentration in heat-denatured S9 fraction” value in data set [1] is “neither changes in the active nor in the deactivated fraction were detected”.
For `C=CC(C)(C)NC(Cc1ccccc1)C(=O)NC(Cc1ccccc1)C(=O)N1CCCC1C(=O)N1CCCC1c1nc(C(=O)O)cs1` (stereo not drawn) [AEG657], the “inhibition of T47D viability” value in [2] came out at 63%. The “effect on Huh7 cell viability” value with Huh7 cells is “lack of significant effects”. Moreover, the inhibition at 60 min, 60 µM on CYP2D6 (setting [8]) is 33.2%. The “reduction of CYP2C9 activity” value at CYP2C9 came to 40.7%. Moreover, at CYP3A4 (60 µM), the “CYP3A4 activity lower than in the control” value is “approx. 18%”. The “change of concentration in active S9 fraction” value in data set [1] (active S9 fraction) was “neither changes in the active nor in the deactivated fraction were detected”. In addition, in [1], the “change of concentration in heat-denatured S9 fraction” value is given as “neither changes in the active nor in the deactivated fraction were detected”.
`CCC(C)C(C(=O)NC(C(=O)N1CCCC1c1nc(C(=O)O)cs1)C(C)C)N(CC=C(C)C)CC=C(C)C` (stereo not drawn) [AEG A]: in data set [2], the “inhibition of T47D viability” value is on record as “no effects were observed”. For the same compound, the “effect on Huh7 cell viability” value with Huh7 cells is “did not affect either of the two cancer cell lines”. In addition, the pIC50 is 5.54 in data set [5], 5.28 in [6] and 5.24 at CYP3A4 (60 min incubation). For the same compound, the “remaining CYP2D6 activity (reduced to)” value at CYP2D6 (6 µM) was 78.4%; on CYP2D6 (60 µM), 60.4%. Besides, the IC50 at 60 min on CYP2D6 (setting [8]) amounted to 8.6 µM. Further, the “reduction of CYP2C9 activity” value at CYP2C9 is reported as 28.7%. Also, the “effect on CYP3A4 activity” value on CYP3A4 is reported as “active against CYP3A4, but only at the two highest concentrations”. Further, the “concentration remaining, % of initial value” worked out at 2.9% in data set [1] (active S9 fraction, 15 min, 3 µM); 0.4% in [1] (setting [7]); 56.0% in data set [1] (heat-denatured S9 fraction, 15 min); 46.0% in data set [1] (heat-denatured S9 fraction, 60 min). Also, the half-life at 3 µM in data set [1] (human, liver S9 fraction (active), pH 7.4, active S9 fraction with NADPH, UDPGA, GSH, read-out: elimination half-life t1/2) stood at 2.48 min.
At CYP2D6 (human), `C=C[C@H]1C[N@@]2CC[C@H]1C[C@@H]2[C@@H](O)c1ccnc2ccc(OC)cc12` [Quinidine, reference compound] yielded an inhibition at 60 min, 60 µM of 96.2%.
Take `Nc1ccc(S(=O)(=O)Nc2ccnn2-c2ccccc2)cc1` [sulfaphenazole, reference compound]: the “reduction of CYP2C9 activity” value on CYP2C9 is 44.9%. On CYP2C9 (human), this compound had an IC50 at 60 min of 6.1 µM.

These data come from PMC8878463, “Biological Activity and Stability of Aeruginosamides from Cyanobacteria” (Marine Drugs, 2022).
